Experimental data published in patent US5480887A, “Protease inhibitors” (Eli Lilly and Company, priority 1994, dated 1996).
Where two headings read alike, the source gives them in different places.

How the values were obtained:
HIV = assay: microbe, parasite or virus in culture; type: cell-based; details: Human immunodeficiency virus 1, concentration inhibiting 90% of the viral-induced toxicity; XTT, 450 nm; * (n) = average of n assays; read-out: Antiviral Activity IC90
Method: In addition, the compounds described in the present application may be tested using an antiviral cell culture assay as described in Weislow, O.S., J. of National Cancer Institute, 81(8), pages 577-586 (Apr. 19, 1989) herein incorporated by reference.
This assay compares the viability of HIV-infected cells in a cell culture medium relative to the viability of such cells in the presence of a test compound. The concentration of test compound necessary to inhibit 90% of the virus is then measured using the viability of the cells as an indicator of viral inhibition. This assay is carried out using cell lines that are sensitive to the lyric effects of HIV infection.
Specifically, this assay utilizes the metabolic reduction of a tetrazolium reagent, 2,3-bis[2-methoxy-4-nitro-5-sulfophenyl]-5-[(phenylamino)carbonyl]-2H-tetrazolium hydroxide (XTT). In the presence of a viable cell, the tetrazolium reagent, XTT, is reduced to provide XTT formazan which may be quantified using colorimetric determination (at 450 nm). The intensity of the chromogenic signal is directly proportional to the concentration of the XTT formazan, thus providing a measure of the quantity of viable cells.

HIV-1 Protease = target: T1, HIV-1 Protease (Human immunodeficiency virus type 1 group M subtype B, UniProt P04585); assay: biochemical; details: for IC50: read-out: Fluorescence Assay IC50 (converted); for inhibition at 0.00016 µg/mL: read-out: % inhibition at the stated concentration (ICx (0.16))
T1 construct: HIV-1 Protease
Method: These compounds may be assayed using two assays: (1) an enzyme inhibition assay, and (2) an antiviral cell culture assay.
This assay is described in detail in published European Patent Application (EPA) 0 526 009, herein incorporated by reference. Using this assay, a number of the compounds, prepared above, were assayed for HIV protease inhibitory activity.
The assay is unable to test compounds at less than a concentration of 0.16 ng/mL.

[1] = concentration inhibiting 50% of the enzyme, * = calculated average with n number of assays

| SMILES | IC50 (HIV-1 Protease; [1]) | inhibition at 0.00016 µg/mL (HIV-1 Protease; at 0.16 ng/mL, lowest testable concentration) | IC90 (HIV) | inhibition at 0.00016 µg/mL (HIV-1 Protease) | IC50 (HIV-1 Protease) |
| --- | --- | --- | --- | --- | --- |
| CC(C)(C)NC(=O)[C@@H]1C[C@@H]2SCC[C@@H]2CN1C[C@@H](O)[C@H](Cc1ccccc1)NC(=O)[C@@H](CS(=O)(=O)c1ccc(F)cc1)NC(=O)C(F)(F)F [Example 19C, N-t-Butyl-octahydro-5[2R-hydroxy-3S-phenylmethyl-4-aza-5-oxo-6S-N(trifluoromethylcarbonyl)amino-7-p-fluorophenylsulfonyl-heptyl]-(3aR,7aS)-thieno[3,2-c]pyridine-(6S)-carboxamide] | – | – | 0.052 µM | 85% | 0.00116 µM |
| CC(=O)N[C@H](CS(=O)(=O)c1ccc2ccccc2c1)C(=O)N[C@@H](Cc1ccccc1)[C@H](O)CN1C[C@H]2CCS[C@H]2C[C@H]1C(=O)NC(C)(C)C [Example 28] | – | – | 0.0218 µM | – | 0.00267 µM |
| CC(C)[C@@H]1[C@H](OC(=O)N[C@@H](CSc2ccccc2)[C@H](O)CN2C[C@H]3CCS[C@H]3C[C@H]2C(=O)NC(C)(C)C)CCS1(=O)=O [10B-52 mg sample] | – | – | 0.009 µM | – | 0.000421 µM |

Continued, in another order:

| IC50 (HIV-1 Protease; [1]) | inhibition at 0.00016 µg/mL (HIV-1 Protease; at 0.16 ng/mL, lowest testable concentration) | SMILES | IC90 (HIV) | inhibition at 0.00016 µg/mL (HIV-1 Protease) | IC50 (HIV-1 Protease) |
| --- | --- | --- | --- | --- | --- |
| 0.0135 µM | – | CC(=O)N[C@H](CCS(C)(=O)=O)C(=O)N[C@@H](CSc1ccccc1)[C@H](O)CN1C[C@H]2CCS[C@H]2C[C@H]1C(=O)NC(C)(C)C [Example 15B, N-t-Butyl-octahydro-5[2R-hydroxy-3R-phenylthiomethyl-4-aza-5-oxo-6R-N(acetyl)amino-8-methylsulfonyl-octyl]-(3aR,7aS)-thieno[3,2-c]pyridine-(6S)-carboxamide] | 7.63 µM | – | – |
| – | 53% | CC(C)[C@H]1SCC[C@H]1OC(=O)N[C@@H](CSc1ccccc1)[C@H](O)CN1C[C@H]2CCS[C@H]2C[C@H]1C(=O)NC(C)(C)C [9B-24 mg sample] | 0.078 µM | – | – |
| 0.00183 µM | – | CC(=O)N[C@H](CS(=O)(=O)c1ccc(F)cc1)C(=O)N[C@@H](CSc1ccccc1)[C@H](O)CN1C[C@H]2CCS[C@H]2C[C@H]1C(=O)NC(C)(C)C [Example 21B, N-t-Butyl-octahydro-5[2R-hydroxy-3R-phenylthiomethyl-4-aza-5oxo-6S-N(acetyl)amino-7-p-fluorophenylsulfonyl-heptyl]-(3aR,7aS)-thieno[3,2-c]pyridine-(6S)-carboxamide] | 0.078 µM | – | – |
| 0.002 µM | – | CC(C)(C)NC(=O)[C@@H]1C[C@@H]2SCC[C@@H]2CN1C[C@@H](O)[C@H](CSc1ccccc1)NC(=O)O[C@H]1CCS(=O)(=O)C1 [11C-6 mg sample] | 0.029 µM | – | – |
